Results published in patent publication US20260232666A1, “COMPOSITIONS AND METHODS FOR INHIBITION OF RAS” (TheRas, Inc., priority 2023, published 2026).

What was measured:
[1] = biological target: T1, Avi-KRAS G12C (1-169) GppNHp/RAF1 RBD-3×FLAG (52-151) (Homo sapiens, UniProt P01116, G12C); test: Raf1 RBD-KRAS G12C-GppNHp disruption assay (protein:protein interaction HTRF); assay type: biochemical
T1 construct: Avi-KRAS G12C (1-169) GppNHp; Avi (N)
Procedure, shortened: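 HTRF measuring RAF1 RBD binding to GppNHp-loaded KRAS G12C (50 nM) in Tris pH 7.5, 100 mM NaCl, 5 mM MgCl2, 10% DMSO. Compound, KRAS, RBD and detection reagents each added sequentially with 1 h room-temperature incubations; 10-point titration; excitation 320 nm, emission 615 nm; activity as % of DMSO; IC50 derived.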

[2] = biological target: T2, GDP-loaded KRAS4b (amino acids 1-169) G12C/C118S protein (Homo sapiens, UniProt P01116, C118S/G12C); test: Covalent cysteine 12 modification by MALDI-TOF MS, GDP-loaded KRAS G12C; assay type: binding; conditions: 15 minutes reaction time point
T2 construct: KRAS4b (amino acids 1-169) G12C/C118S protein; made in house
Procedure, shortened: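 Covalent adduct formation measured by linear-mode MALDI-TOF MS as modified peak height over summed peak heights, 15 min time point reported. Reactions: KRAS4b 1-169 G12C/C118S (1 μM, loaded with GppNHp, GTP or GDP) plus compound at 1:2.5 ratio, pH 7.3 HEPES/NaCl/MgCl2, room temperature.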

- IC50 [1]: < 0.5 µM
- GDP-KRAS G12C percent of modification [2]: A (percent of modification ≥70%)
SMILES: C=CC(=O)N1CC[C@@H](N(C)c2nc(OC[C@@H]3C[C@@H](OC)CN3CC)nc3c(F)c(-c4ccc(F)c5sc(N)c(C#N)c45)c(Cl)cc23)[C@@H]1C [Compound 100]
